One assay relates to HEK-293 cells. Briefly: HEK-293 cell cytotoxicity detection (CellTiter-Glo). The class given is cell-based. The conditions noted are these: incubation of 72 h, CellTiter-Glo luminescence. The method, then: HEK-293 cells were treated with compounds diluted in 0.4% DMSO, dilution was done according to the following protocol: (1) making 250× stock solution in DMSO from 10 mM by 4-fold dilution, total 8 doses were included; (2) making 2 solution in cell culture medium by transferring 1 μl 250× stock solution into 124 μl medium; (3) adding 50 μl of 2× solution to cells for incubation of 72 h.
25 μl of the CellTiter-Glo® Reagent [(PromegaCat #G9242)] was added to each well in the 96-well plate. The contents were mixed for 2 minutes on an orbital shaker to induce cell lysis. The plate was then allowed to incubate at room temperature for 10 minutes to stabilize luminescent signal. Luminescence was recorded on BMG PheraStar with luminescence protocol.
The IC50 value of a compound can be obtained by fitting the following equation: […]
Wherein, X and Y are known values, and IC50, Hillslope, Top and Bottom are the parameters obtained by fitting with software. Y is the inhibition percentage (calculated from the equation), X is the concentration of the compound; IC50 is the concentration of the compound when the 50% inhibition is reached. The smaller the IC50 value is, the stronger the inhibitory ability of the compound is. Vice versa, the higher the IC50 value is, the weaker the ability the inhibitory ability of the compound is; Hillslope represents the slope of the fitted curve, generally around 1*; Bottom represents the minimum value of the curve obtained by data fitting, which is generally 0%±20%; Top represents the maximum value of the curve obtained by data fitting, which is generally 100%±20%. The experimental data were fitted by calculating and analyzing with Dotmatics data analysis software.

The target of a further assay is CDK2/Cyclin E1 (Homo sapiens, UniProt P24941). As to the kind of experiment: CDK2/Cyclin E1 TR-FRET biochemical assay (1 mM ATP). The conditions noted are these: 90 minutes reaction. The method, then: (§1) Compounds disclosed herein were tested for inhibition of CDK2/Cyclin E1 or CDK1/Cyclin B1 kinase in an assay based on the time-resolved fluorescence-resonance energy transfer (TR-FRET) methodology. The assay was carried out in 384-well low volume black plates in a reaction mixture containing CDK2/Cyclin E1 or CDK1/Cyclin B1, 1 mM ATP for CDK2/Cyclin E1 and CDK1/Cyclin B1, 0.15 μM Rb (Ser780)-biotin substrate and 0-10 μM compound in buffer containing 50 mM HEPES pH7.0, 0.02% NaN3, 0.01% BSA, 0.1 mM Orthovanadate, 50 mM MgCl2, 1 mM DTT and 0.005% Tween-20. The kinase was incubated with compound for 60 minutes at room temperature and the reaction was initiated by the addition of ATP and Rb (Ser780)-biotin substrate. After reaction at room temperature for 90 minutes, an equal volume of stop/detection solution was added according to the manufacture's instruction (Cisbio Bioassays). The stop/detection solution contained Streptavidin-XL665 and Anti-pRb (Ser780) mAb-Eu Cryptate in Detection buffer (Cisbio Bioassays). Plates were incubated at room temperature for 60 minutes, and the TR-FRET signals (ex337 nm, em665 nm/620 nm) were recorded on a PHERAstar FSX plate reader (BMG Labtech). The inhibition percentage of CDK2/Cyclin E1 or CDK1/Cyclin B1 kinase activity in presence of increasing concentrations of compounds was calculated based on the ratio of fluorescence at 665 nm to that at 620 nm. The IC50 for each compound was derived from fitting the data to the four-parameter logistic equation by Dotmatics.

Another assay addresses CDK1/Cyclin B1 (Homo sapiens, UniProt P06493). Briefly: CDK1/Cyclin B1 TR-FRET biochemical assay (1 mM ATP). The conditions noted are these: 90 minutes reaction. The procedure: as §1

pIC50: −log10 of the molar value. Read-outs that look alike come from different tables or passages of the source.

Chain of CDK1/Cyclin B1 (P06493 whole entry): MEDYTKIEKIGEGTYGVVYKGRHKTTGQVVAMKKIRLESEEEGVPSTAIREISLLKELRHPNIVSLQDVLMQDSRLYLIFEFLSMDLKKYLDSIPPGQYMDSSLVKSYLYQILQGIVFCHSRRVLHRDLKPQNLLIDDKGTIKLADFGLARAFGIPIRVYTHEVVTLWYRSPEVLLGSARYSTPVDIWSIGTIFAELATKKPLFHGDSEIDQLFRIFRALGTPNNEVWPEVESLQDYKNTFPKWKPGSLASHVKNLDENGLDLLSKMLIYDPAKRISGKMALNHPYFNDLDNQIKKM
Chain of CDK1/Cyclin B1 (P14635 whole entry partner): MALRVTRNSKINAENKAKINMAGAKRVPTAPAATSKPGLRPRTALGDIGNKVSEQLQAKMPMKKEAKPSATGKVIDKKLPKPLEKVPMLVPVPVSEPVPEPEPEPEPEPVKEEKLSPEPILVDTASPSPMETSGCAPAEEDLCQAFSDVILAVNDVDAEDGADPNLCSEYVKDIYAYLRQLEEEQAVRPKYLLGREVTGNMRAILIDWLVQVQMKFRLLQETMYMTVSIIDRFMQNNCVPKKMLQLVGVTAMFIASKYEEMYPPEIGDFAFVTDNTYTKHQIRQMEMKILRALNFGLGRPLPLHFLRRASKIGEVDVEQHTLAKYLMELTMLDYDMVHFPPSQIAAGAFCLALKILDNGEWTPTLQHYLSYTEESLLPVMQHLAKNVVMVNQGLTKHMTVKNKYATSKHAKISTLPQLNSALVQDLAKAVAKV

On to `CC1(NC(=O)OC2CCC(c3cc(Nc4ccc5c(c4F)CS(=O)(=O)C5)n[nH]3)C2)CCOC1` (single isomer, unassigned) [Example 13b, cis-3-(3-((4-fluoro-2,2-dioxido-1,3-dihydrobenzo[c]thiophen-5-yl)amino)-1H-pyrazol-5-yl)cyclopentyl (3-methyltetrahydrofuran-3-yl)carbamate], for which the pIC50 in the assay on HEK-293 cells (read-out: HEK293 IC50) is 6.25; against CDK2/Cyclin E1, 9.22; against CDK1/Cyclin B1, 6.45.

On to `CC1(NC(=O)OC2CCC(c3cc(Nc4ccc5c(c4F)CS(=O)(=O)C5)n[nH]3)C2)CCOC1` (single isomer, unassigned) [Example 13c, cis-3-(3-((4-fluoro-2,2-dioxido-1,3-dihydrobenzo[c]thiophen-5-yl)amino)-1H-pyrazol-5-yl)cyclopentyl (3-methyltetrahydrofuran-3-yl)carbamate], for which the pIC50 in the assay on HEK-293 cells (read-out: HEK293 IC50) is 5.76; at CDK2/Cyclin E1, 9.30; against CDK1/Cyclin B1 it was 6.68.

Consider `CC1(NC(=O)OC2CCC(c3cc(Nc4ccc5c(c4F)CS(=O)(=O)C5)n[nH]3)C2)CCOC1` (single isomer, unassigned) [Example 13d, cis-3-(3-((4-fluoro-2,2-dioxido-1,3-dihydrobenzo[c]thiophen-5-yl)amino)-1H-pyrazol-5-yl)cyclopentyl (3-methyltetrahydrofuran-3-yl)carbamate], for which the results for the pIC50 in the assay on HEK-293 cells (read-out: HEK293 IC50), against CDK2/Cyclin E1 and against CDK1/Cyclin B1 were 5.38, 9.05 and 6.49, respectively.

Regarding `CC1(NC(=O)OC2CCC(c3cc(Nc4ccc5c(c4F)CS(=O)(=O)C5)n[nH]3)C2)COC1` (single isomer, unassigned) [Example 15a, cis-3-(3-((4-fluoro-2,2-dioxido-1,3-dihydrobenzo[c]thiophen-5-yl)amino)-1H-pyrazol-5-yl)cyclopentyl (3-methyloxetan-3-yl)carbamate], the pIC50 with HEK-293 cells (Homo sapiens, HEK293, 72 h) is less than 5.00; on CDK2/Cyclin E1, 8.72; against CDK1/Cyclin B1, 5.96.

On to `CC1(NC(=O)OC2CCC(c3cc(Nc4ccc5c(c4F)CS(=O)(=O)C5)n[nH]3)C2)COC1` (single isomer, unassigned) [Example 15b, cis-3-(3-((4-fluoro-2,2-dioxido-1,3-dihydrobenzo[c]thiophen-5-yl)amino)-1H-pyrazol-5-yl)cyclopentyl (3-methyloxetan-3-yl)carbamate], for which the pIC50 is 5.00 in the assay on HEK-293 cells (read-out: HEK293 IC50), 8.70 against CDK2/Cyclin E1 and 6.30 against CDK1/Cyclin B1.

Consider `CCNC(=O)OC1CCC(c2cc(Nc3ccc4c(c3F)CS(=O)(=O)C4)n[nH]2)C1` (single isomer, unassigned) [Example 18a, cis-3-(3-((4-fluoro-2,2-dioxido-1,3-dihydrobenzo[c]thiophen-5-yl)amino)-1H-pyrazol-5-yl)cyclopentyl ethylcarbamate], for which the pIC50 was less than 5.00 with HEK-293 cells (read-out: HEK293 IC50), 8.28 on CDK2/Cyclin E1 and 5.89 against CDK1/Cyclin B1.

Take `CCNC(=O)OC1CCC(c2cc(Nc3ccc4c(c3F)CS(=O)(=O)C4)n[nH]2)C1` (single isomer, unassigned) [Example 18b, cis-3-(3-((4-fluoro-2,2-dioxido-1,3-dihydrobenzo[c]thiophen-5-yl)amino)-1H-pyrazol-5-yl)cyclopentyl ethylcarbamate]: the results for the pIC50 with HEK-293 cells (read-out: HEK293 IC50), on CDK2/Cyclin E1 and at CDK1/Cyclin B1 were 6.28, 8.28 and 6.26, respectively.

As for `O=C(NC1CCOC1)OC1CCC(c2cc(Nc3ccc4c(c3F)CS(=O)(=O)C4)n[nH]2)C1` (single isomer, unassigned) [Example 24a, cis-3-(3-((4-fluoro-2,2-dioxido-1,3-dihydrobenzo[c]thiophen-5-yl)amino)-1H-pyrazol-5-yl)cyclopentyl (tetrahydrofuran-3-yl)carbamate], the pIC50 in the assay on HEK-293 cells (Homo sapiens, HEK293, 72 h) was less than 5.00; against CDK2/Cyclin E1, 7.77; on CDK1/Cyclin B1, 5.33.

In the case of `O=C(NC1CCOC1)OC1CCC(c2cc(Nc3ccc4c(c3F)CS(=O)(=O)C4)n[nH]2)C1` (single isomer, unassigned) [Example 24b, cis-3-(3-((4-fluoro-2,2-dioxido-1,3-dihydrobenzo[c]thiophen-5-yl)amino)-1H-pyrazol-5-yl)cyclopentyl (tetrahydrofuran-3-yl)carbamate], the pIC50 with HEK-293 cells (read-out: HEK293 IC50) is less than 5.00; against CDK2/Cyclin E1, 7.21; against CDK1/Cyclin B1, 5.10.

For `O=C(N[C@H]1CC[C@@H](O)CC1)OC1CCC(c2cc(Nc3ccc4c(c3F)CS(=O)(=O)C4)n[nH]2)C1` (stereo partly drawn) [Example 17, cis-3-(3-((4-fluoro-2,2-dioxido-1,3-dihydrobenzo[c]thiophen-5-yl)amino)-1H-pyrazol-5-yl)cyclopentyl ((1s,4s)-4-hydroxycyclohexyl)carbamate], the negative logarithm of the IC50 (pIC50) in the assay with HEK-293 cells (Homo sapiens, HEK293, 72 h) was 6.00; against CDK2/Cyclin E1, 8.64; against CDK1/Cyclin B1, 6.08.

In the case of `C[C@]1(O)CC[C@@H](NC(=O)OC2CCC(c3cc(Nc4ccc5c(c4F)CS(=O)(=O)C5)n[nH]3)C2)CC1` (stereo partly drawn) [Example 25, cis-3-(3-((4-fluoro-2,2-dioxido-1,3-dihydrobenzo[c]thiophen-5-yl)amino)-1H-pyrazol-5-yl)cyclopentyl ((1s,4s)-4-hydroxy-4-methylcyclohexyl)carbamate], the pIC50 was 5.95 in the assay with HEK-293 cells (Homo sapiens, HEK293, 72 h); 8.74 against CDK2/Cyclin E1; 6.11 against CDK1/Cyclin B1.

For `O=C(N[C@H]1CC[C@H](O)CC1)OC1CCC(c2cc(Nc3ccc4c(c3F)CS(=O)(=O)C4)n[nH]2)C1` (stereo partly drawn) [Example 26, cis-3-(3-((4-fluoro-2,2-dioxido-1,3-dihydrobenzo[c]thiophen-5-yl)amino)-1H-pyrazol-5-yl)cyclopentyl ((1r,4r)-4-hydroxycyclohexyl)carbamate], the pIC50 with HEK-293 cells (Homo sapiens, HEK293, 72 h) was 6.00; on CDK2/Cyclin E1, 8.82; against CDK1/Cyclin B1, 6.42.

Consider `C[C@]1(O)CC[C@H](NC(=O)OC2CCC(c3cc(Nc4ccc5c(c4F)CS(=O)(=O)C5)n[nH]3)C2)CC1` (stereo partly drawn) [Example 34, cis-3-(3-((4-fluoro-2,2-dioxido-1,3-dihydrobenzo[c]thiophen-5-yl)amino)-1H-pyrazol-5-yl)cyclopentyl ((1r,4r)-4-hydroxy-4-methylcyclohexyl)carbamate], for which the pIC50 with HEK-293 cells (Homo sapiens, HEK293, 72 h) was 5.84; against CDK2/Cyclin E1, 8.96; at CDK1/Cyclin B1, 5.93.

For the origin of these results see patent US20260176282A1, “BICYCLIC COMPOUNDS AS CDK INHIBITORS” (BEONE MEDICINES I GMBH, priority 2023, published 2026).
